According to paper PMC2935307 (Biochemical pharmacology, 2010):
“And” between values parts separate entries of the source, which are not always exact repeats. Equal values may be shown once. Read-outs that look alike come from different tables or passages of the source.

Experiments:
[1] = tested on: α4β2*-nAChR binding sites; details: mice treated chronically with nicotine; cited from earlier work
[2] = tested on: α4β2-nAChR; details: read-out: IC50 for desensitization by nicotine; transfected cells; cited from earlier work
[3] = molecular target: T1, α4β2*-nAChR (Mus musculus, UniProt O70174+Q9ERK7); details: cited from earlier work
[4] = molecular target: T1, α4β2*-nAChR; details: total efflux normalized to baseline
[5] = molecular target: epibatidine binding sites (Mus musculus, UniProt O70174+Q9ERK7)
[6] = molecular target: high affinity epibatidine binding sites (Mus musculus, UniProt O70174+Q9ERK7); test: biochemical
[7] = molecular target: T1, α4β2*-nAChR; test: biochemical
[8] = molecular target: T1, α4β2*-nAChR; format: biochemical
[9] = cortex, nicotine infusion 0.5 mg/kg/hr
[10] = cortex, nicotine infusion 4.0 mg/kg/hr
[11] = thalamus, nicotine infusion 0.5 mg/kg/hr
[12] = thalamus, nicotine infusion 4.0 mg/kg/hr
[13] = HS EC50 for 86Rb+ efflux from Marks et al., 1999, errors by Taylor's expansion
[14] = IC50 for desensitization of the LS component
[15] = LS EC50 for 86Rb+ efflux from Marks et al., 1999, errors by Taylor's expansion

Chain of high affinity epibatidine binding sites (Q9ERK7 26-501): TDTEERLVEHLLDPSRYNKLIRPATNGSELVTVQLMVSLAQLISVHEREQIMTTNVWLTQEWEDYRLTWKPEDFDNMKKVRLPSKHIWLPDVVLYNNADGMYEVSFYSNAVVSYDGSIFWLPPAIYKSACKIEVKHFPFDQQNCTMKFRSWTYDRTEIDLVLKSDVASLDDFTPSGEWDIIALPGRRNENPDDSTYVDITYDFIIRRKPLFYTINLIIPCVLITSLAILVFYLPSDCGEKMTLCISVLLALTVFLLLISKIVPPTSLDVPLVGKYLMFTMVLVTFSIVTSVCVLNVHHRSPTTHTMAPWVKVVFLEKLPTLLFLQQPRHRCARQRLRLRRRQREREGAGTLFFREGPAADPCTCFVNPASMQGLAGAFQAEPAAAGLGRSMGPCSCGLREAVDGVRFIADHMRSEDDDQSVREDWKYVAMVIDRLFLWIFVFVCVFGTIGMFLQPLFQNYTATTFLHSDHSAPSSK
Chain of high affinity epibatidine binding sites (O70174 31-629): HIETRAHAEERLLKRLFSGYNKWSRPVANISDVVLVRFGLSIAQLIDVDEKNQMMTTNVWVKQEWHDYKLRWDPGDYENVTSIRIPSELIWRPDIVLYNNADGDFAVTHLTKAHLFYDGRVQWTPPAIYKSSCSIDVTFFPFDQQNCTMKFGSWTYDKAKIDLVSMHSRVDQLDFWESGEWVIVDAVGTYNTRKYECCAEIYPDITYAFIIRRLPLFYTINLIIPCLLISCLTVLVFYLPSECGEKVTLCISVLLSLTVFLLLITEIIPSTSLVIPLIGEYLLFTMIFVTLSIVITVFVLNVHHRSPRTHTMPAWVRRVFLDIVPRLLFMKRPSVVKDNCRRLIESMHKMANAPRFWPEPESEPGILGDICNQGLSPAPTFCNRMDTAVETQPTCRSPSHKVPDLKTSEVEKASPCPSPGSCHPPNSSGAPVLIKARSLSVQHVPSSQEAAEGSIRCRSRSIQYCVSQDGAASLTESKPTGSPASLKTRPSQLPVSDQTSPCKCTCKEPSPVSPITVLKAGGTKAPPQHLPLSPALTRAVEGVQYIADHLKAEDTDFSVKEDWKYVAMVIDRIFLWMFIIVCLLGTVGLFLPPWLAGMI
T1 sequence (Q9ERK7 26-501): as the sequence (Q9ERK7 26-501) above
T1 sequence (O70174 31-629): as the sequence (O70174 31-629) above
Chain of epibatidine binding sites (Q9ERK7 26-501): as the sequence (Q9ERK7 26-501) above
Chain of epibatidine binding sites (O70174 31-629): as the sequence (O70174 31-629) above

For `CN1CCC[C@H]1c1cccnc1` [nicotine], the “average dose for half-maximal upregulation of α4β2*-nAChR binding sites” value [1] is listed as 0.44 mg/kg/h, the IC50 [2] is listed as […] and the “Difference in EC50 values for stimulation of HS and LS responses” value (“Difference in EC50 values” for short) [3] is listed as 94 fold. The “High Sensitivity 86Rb+ Efflux (maximal)” value [4, 9] was 2.06±0.19, the “Low Sensitivity 86Rb+ Efflux (maximal)” value [4, 9] was 6.80±0.50 and the “High Sensitivity 86Rb+ Efflux (maximal)” value [4, 10] was 1.88±0.11. The “Low Sensitivity 86Rb+ Efflux (maximal)” value [4, 10] was 5.63±0.80, the “High Sensitivity 86Rb+ Efflux (maximal)” value [4, 11] was 10.19±0.99 and the “Low Sensitivity 86Rb+ Efflux (maximal)” value [4, 11] was 13.84±2.48. For the same compound, the “High Sensitivity 86Rb+ Efflux (maximal)” value [4, 12] was 6.76±1.19, the “Low Sensitivity 86Rb+ Efflux (maximal)” value [4, 12] was 12.52±1.96 and the “[125I]-Epibatidine Bound” value [5, 9] was 127.9±1.1 fmol/mg protein. For the same compound, the “[125I]-Epibatidine Bound” value [5, 10] was 139.0±1.2 fmol/mg protein, the “[125I]-Epibatidine Bound” value [5, 11] was 240.7±2.5 fmol/mg protein and the “[125I]-Epibatidine Bound” value [5, 12] was 256.8±2.9 fmol/mg protein.

In the case of `O=c1cccc2n1C[C@@H]1CNC[C@H]2C1` [cytisine], the Ki [6] is listed as 0.32 ± 0.02 nM, the “Difference in EC50 values” value [3] is listed as 11,500 fold and the “Ratio KI High Affinity Binding/Desensitization IC50” value [7] is listed as 0.119±0.011. For the same compound, the “Ratio: HS EC50/Desensitization IC50” value [7, 13] was 4.8, the IC50 ([7]; IC50 Desensitization) was 2.7 ± 0.2 nM and the IC50 [7, 14] was 5.4 ± 1.4 nM. For the same compound, the “Ratio: LS EC50/Desensitization IC50” value [7, 15] was 56000±23000.

For `Clc1ccc(C2CC3CCC2N3)cn1` (racemic) [epibatidine, (±)-epibatidine], the Ki [6] is listed as 0.024 ± 0.008 nM, the “Difference in EC50 values” value ([3]; mouse brain synaptosomes) is listed as 39 fold and the “% des” value [8] is listed as 69.9 ± 6.1% and 64.5 ± 11.7% and 96.7 ± 8.9% and 93.8 ± 7.4%. The “Ratio KI High Affinity Binding/Desensitization IC50” value [7] was 0.065±0.022, the “Ratio: HS EC50/Desensitization IC50” value [7] was 154±44 and the “Ratio: LS EC50/Desensitization IC50” value [7] was 6000 and 6000±870. The IC50 ([7]; IC50 Desensitization) was 0.37 ± 0.02 nM, the IC50 ([7]; IC50 for desensitization of the HS component) was 0.33 ± 0.09 nM and the IC50 [7, 14] was 0.38 ± 0.09 nM.

For `CNC(=O)OCC[N+](C)(C)C.[Cl-]` [methylcarbachol, methycarbachol chloride], the Ki ([6]; read-out: Ki, high affinity epibatidine binding) is given as 7.9 ± 1.7 nM, the “Difference in EC50 values” value ([3]; mouse brain synaptosomes) is given as 38 fold and the “% des” value [8] is given as 50.9 ± 8.8% and 56.0 ± 8.1% and 94.3 ± 7.3% and 88.7 ± 6.4%. For the same compound, the “Ratio: HS EC50/Desensitization IC50” value [7, 13] was 380, the “Ratio: LS EC50/Desensitization IC50” value [7, 15] was 56,000 and the “Ratio KI High Affinity Binding/Desensitization IC50” value ([7]; errors by Taylor's expansion) was 0.156±0.042.
